Measurements: US20160368943A1, “SUBSTITUTED PURINE COMPOUNDS” (EPIZYME, INC., priority 2013, published 2016)

Legend:
Format in all cases: in vitro ADME
[1] = Plasma stability, dog; conditions: Beagle, pooled plasma, 37° C., read-out: Half-life in ex vivo blood plasma
Excerpt: Samples were quenched in methanol and analyzed by LC-MS/MS analysis.

[2] = Hepatocyte stability, human
Procedure: Human, Beagle dog, Sprague-Dawley rat, and CD-1 mouse cryopreserved hepatocytes were obtained from XenoTech and stored at −150° C. until use. The hepatocytes were thawed and prepared according to the vendor's instructions, pooled into Krebs Henseleit buffer (KHB, pH 7.4), and kept on ice prior to initiating an experiment. […] The reaction mixture was incubated in a shaking water bath at 37° C. Aliquots of the incubation solutions were sampled at 0, 15, 30, 60, and 120 minutes. The reaction was immediately terminated by the addition of three volumes of ice-cold acetonitrile containing 0.1% formic acid and internal standards. After centrifugation at 1640×g for 10 minutes, the supernatants were transferred into HPLC vials, and the test compound was analyzed by LC-MS/MS. Positive controls, testosterone (20 μM) and 7-hydroxycoumarin (100 μM), were performed in parallel to confirm the enzyme activities of the hepatocytes used.
Experimental half-lives were transformed to the corresponding intrinsic clearance values and subsequently scaled to predicted in vivo clearance values, using the well-stirred model as previously described (Houston, Biochemical Pharmacology 47(9): 1469-1479, 1994; Obach, Drug Metabolism and Disposition 27(11): 1350-1359, 1999), with appropriate species-specific scaling factors (Barter et al., Current Drug Metabolism 8(1): 33-45, 2007).

[3] = MDCK cell permeability, native cells; conditions: dog, Basolateral-to-apical
Procedure: Samples were taken from the donor and receiver chambers at 120 minutes. Each determination was performed in duplicate. Co-dosed lucifer yellow flux was also measured for each monolayer to ensure cell monolayers remained intact during the incubation. All samples were assayed by LC-MS/MS.

## CC(C)N(C[C@H]1O[C@@H](n2cnc3c(N)ncnc32)[C@H](O)[C@@H]1O)[C@H]1C[C@@H](CCc2nc3cc(C(C)(C)C)ccc3[nH]2)C1 [Compound A, (2R,3R,4S,5R)-2-(6-amino-9H-purin-9-yl)-5-((((1r,3S)-3-(2-(5-(tert-butyl)-1H-benzo[d]imidazol-2-yl)ethyl)cyclobutyl)(isopropyl)amino)methyl)tetrahydrofuran-3,4-diol]
[1]
  half-life at 1 μM: > 2 h
[2]
  Scaled Hepatic CL from hepatocytes: <3 mL/min/kg
[3]
  Papp B→A at 120 min, 10 uM: 0.3 ×10⁻⁶ cm/s
